Results as given in patent US10596223B2, “JNK inhibitor molecules for treatment of various diseases” (Xigen Inflammation Ltd., priority 2011, dated 2020).
Entries after “also recorded” stand apart in the source; their conditions may differ. Square brackets hold non-standard residues; d marks the D form. Peptide text beside a SMILES is read from it.

Tests used:
[1] = system: primary human T-cells; assay: IL2 secretion by primary human T-cells; type: cell-based
Excerpt: The JNK inhibitors used are indicated by their SEQ ID NO: 172 and 197.

[2] = system: scopolamine-induced dry eye in mice; assay: Scopolamine-induced model of dry eye (TBUT, PRTT, histopathology); type: in vivo, mouse; details: for histological scores of the cornea compared with cyclosporine group: Day 22
Description: The objective of this study was to assess the effects of two different compounds, the all-D-retro-inverso JNK-inhibitor (poly-)peptide of SEQ ID NO: 197 and the JNK inhibitor (poly-)peptide of SEQ ID NO: 172, at three dose levels in a mouse model of scopolamine-induced dry eye.
The peptides of SEQ ID NO: 197 and SEQ ID NO: 172 were tested for efficacy in this murine model of dry eye. The peptides were both tested at a low, medium and a high dose. […] The vehicle, which also served as the negative control, was 0.9% Sodium Chloride for Injection USP.
The study consisted of a total of 9 groups of female C57BL/6 mice, comprising 8 groups of 12 mice each and an additional group of 4 mice. Bilateral short-term dry eye was induced by a combination of scopolamine hydrobromide (Sigma-Aldrich Corp., St. Louis, Mo.) injection (subcutaneous (SC), four times daily, 0.5 mg/dose, Days 0-21) and by exposing mice to the drying environment of constant air draft. […] Mice of Group 9 were maintained as un-induced, (no dry eye) untreated controls.
During the in-life (treatment) period, clinical observations were recorded once daily; slit-lamp examination (SLE) with corneal fluorescein staining, tear break-up time test (TBUT), and phenol red thread test (PRTT) were performed three times per week. Necropsies were performed on Day 22; eyes, eye lids, conjunctivae, and lacrimal glands were collected from both eyes of each animal. Tissues from the right eyes (oculus dexter, OD) were fixed and then evaluated microscopically. Tissues from the left eyes (oculus sinister; OS) were flash-frozen in liquid nitrogen and stored frozen at −80° C. for possible subsequent analyses.
Prior to the start of the study, the (poly-)peptides of SEQ ID NO: 172 and of SEQ ID NO: 197 were formulated in sterile saline (vehicle). Dosing solutions at each concentration were sterilized using 0.2-μm filters, aliquoted to multiple pre-labeled vials, and frozen at −20° C.
Prior to entry into the study, each animal underwent a SLE and indirect ophthalmic examination using topically-applied fluorescein. Ocular findings were recorded using the Draize scale ocular scoring. SLE and Draize scoring were repeated three times a week during the in-life period.
The TBUT test was conducted three times weekly by measuring the time elapsed in seconds between a complete blink after application of fluorescein to the cornea and the appearance of the first random dry spot in the tear film. […] At least ninety seconds later, corneal epithelial damage was graded using a slit-lamp with a cobalt blue filter after another drop of 0.1% fluorescein was reapplied to the cornea; the cornea then was scored per the Draize ocular scale.
Tear production was measured three times a week in both eyes using PRTT test strips (Zone-Quick; Menicon, Nagoya, Japan). Prior to the first treatment of the day, a thread was applied to the lateral canthus of the conjunctival fornix of each eye for 30 seconds under slit-lamp biomicroscopy. Tear migration up the tread (i.e., the length of the wetted cotton thread) was measured using a millimeter scale.
At necropsy on Day 22, both eyes from each animal, including the globes, lacrimal glands, eyelids, and conjunctivae, were excised.

[3] = system: Primary Rat Whole Blood Cells; assay: Cytokine release in rat whole blood (LPS or PMA+ionomycin, 4 h); type: cell-based; details: 10 μM inhibitor, three activator concentrations
Description: Given are the results for the control, 1 μM of SEQ ID NO: 172, 3 μM of SEQ ID NO: 172, and 10 μM of SEQ ID NO: 172 at different levels of LPS (ng/ml).
FIG. 17 Dose dependent inhibition of IL-2 release in rat whole blood stimulated with PMA+ionomycin. JNK inhibitor with SEQ ID NO: 172 was added at three different concentrations, namely 1, 3 and 10 μM 1 h before stimulation with PMA+ionomycin. Three doses of activators were added (25/500 ng/mL, 50/750 ng/mL and 50/1000 ng/mL) for 4 h. IL-2 release was assessed in supernatant.
Whole blood is collected from anesthetized rat or human healthy volunteers using a venipuncture connected to a pre-labeled vacuum tube containing sodium citrate. Tubes are gently mixed by inversion 7-8 times; and are then kept at RT until stimulation. JNK inhibitor of SEQ ID NO: 172_is prepared […] concentrated in PBS, and 30 μl/well of mix is added into 96-well plate. Whole blood is diluted by 1:2 in PBS and 120 μl of diluted blood is added in each well where either PBS alone or JNK inhibitor of SEQ ID NO: 172 has been previously added. Whole blood is incubated at 37° C.; 85 rpm (Stuart Orbital incubator S1500) for 60 min. […] Cytokine (IL-6, IL-2, IFNγ and TNFα) were then measured using standard Elisa kits (e.g. from R&D Systems: DuoSet Elisas; or from BD Biosciences: BD Opteia Set Elisa). Results are expressed as pg/ml of supernatant of the measured cytokine. […]

[4] = topical ocular TID, Days 1 to 21

## CC(C)C[C@H](NC(=O)[C@H](CC(N)=O)NC(=O)[C@H](CC(C)C)NC(=O)[C@@H](NC(=O)[C@@H](C)NC(=O)[C@@H]1CCCN1C(=O)[C@H](CCCNC(=N)N)NC(=O)[C@@H](CCCCN)NC(=O)[C@@H]1CCCN1C(=O)[C@H](CCCNC(=N)N)NC(=O)[C@@H](CCCNC(=N)N)NC(=O)[C@H](CCCNC(=N)N)NC(=O)[C@H](CCCNC(=N)N)NC(=O)[C@H](CCC(N)=O)NC(=O)[C@@H](CCCNC(=N)N)NC(=O)[C@H](CCCNC(=N)N)NC(=O)[C@H](CCCCN)NC(=O)[C@H](CCCCN)NC(=O)[C@H](N)CCCNC(=N)N)[C@@H](C)O)C(=O)N[C@H](Cc1ccccc1)C(N)=O [SEQ ID NO: 172, rKKRrQRRrRPkRPaTLNLf] (H-[dR]KKR[dR]QRR[dR]RP[dK]RP[dA]TLNL[dF]-NH2; N-terminus assumed)
[1]
  IL2 secretion in response to CD3/CD28 stimulation: blocks IL2 secretion
  IL2 secretion in response to PMA/Ionomycin: blocks IL2 secretion
[2]; 0.2% (mid dose)
  histological scores of the cornea compared with cyclosporine group: the most effective, after cyclosporine
[2]; 0.6% (high dose)
  histological scores of the cornea compared with cyclosporine group: the most effective, after cyclosporine
[2]; Day 7 to Day 21, SEQ ID NO: 172 0.05%, 0.2% and 0.6%, cyclosporine 0.05%
  TBUT AUC compared with vehicle control (Kruskal-Wallis): significant increases in the TBUT AUC
[2]; Day 21, mid and high-dose (0.2%, 0.6%)
  PRTT in the last test, aqueous tear production: therapeutic effects similar to cyclosporine
[2]; [4]
  PRTT, production of aqueous tears, low, mid and high dose (in words): significantly more aqueous tears compared to vehicle-treated animals
  TBUT means, low, mid and high dose (in words): above the vehicle group; also recorded: dose-dependent increase in TBUT
[3]
  PMA-iono-induced IL-2 release: did efficiently reduce PMA-iono-induced IL-2 release
